Results published in PubChem BioAssay (NCI).
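Values below derive from 48-hour exposures of cells grown in 96-well plates, with endpoints linearly interpolated between the two concentrations bracketing the appropriate inhibition level. GI50 marks 50% less growth. TGI is the concentration that stops growth completely.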

Tests used:
Test in all cases: DTP human tumour cell line panel, 48 h; in the data active = GI50 below about 0.43 µM; inactive = the rest
MDA-MB-435 = test system: MDA-MB-435
EKVX NSCLC = test system: EKVX NSCLC
UACC-257 melanoma = test system: UACC-257 melanoma
HOP-62 NSCLC = test system: HOP-62 NSCLC
NCI-H522 lung = test system: NCI-H522 lung
CCRF-CEM leukemia = test system: CCRF-CEM leukemia
IGROV1 ovarian = test system: IGROV1 ovarian
SN12C renal = test system: SN12C renal
T-47D breast = test system: T-47D breast
RPMI-8226 leukemia = test system: RPMI-8226 leukemia
MOLT-4 leukemia = test system: MOLT-4 leukemia
786-0 renal = test system: 786-0 renal
NCI/ADR-RES ovarian = test system: NCI/ADR-RES ovarian
NCI-H23 lung = test system: NCI-H23 lung
SW-620 colon = test system: SW-620 colon
SF-268 CNS = test system: SF-268 CNS
HCT-15 colon = test system: HCT-15 colon
UO-31 renal = test system: UO-31 renal
SR leukemia = test system: SR leukemia
NCI-H460 lung = test system: NCI-H460 lung
RXF 393 renal = test system: RXF 393 renal
PC-3 prostate = test system: PC-3 prostate
U251 CNS = test system: U251 CNS
M14 melanoma = test system: M14 melanoma
SK-MEL-5 melanoma = test system: SK-MEL-5 melanoma
SK-MEL-2 melanoma = test system: SK-MEL-2 melanoma
HT29 colon = test system: HT29 colon
OVCAR-8 ovarian = test system: OVCAR-8 ovarian
OVCAR-3 ovarian = test system: OVCAR-3 ovarian
BT-549 breast = test system: BT-549 breast
SK-OV-3 ovarian = test system: SK-OV-3 ovarian
NCI-H226 lung = test system: NCI-H226 lung
SNB-19 CNS = test system: SNB-19 CNS
UACC-62 melanoma = test system: UACC-62 melanoma
TK-10 renal = test system: TK-10 renal
OVCAR-5 ovarian = test system: OVCAR-5 ovarian
CAKI-1 renal = test system: CAKI-1 renal
HOP-92 NSCLC = test system: HOP-92 NSCLC
HS 578T breast = test system: HS 578T breast
K-562 leukemia = test system: K-562 leukemia
SF-295 CNS = test system: SF-295 CNS
KM12 colon = test system: KM12 colon
MCF7 breast = test system: MCF7 breast
HCT-116 colon = test system: HCT-116 colon
A498 renal = test system: A498 renal
COLO 205 colon = test system: COLO 205 colon
A549 NSCLC = test system: A549 NSCLC
SF-539 CNS = test system: SF-539 CNS
MDA-MB-231 breast = test system: MDA-MB-231 breast
MALME-3M melanoma = test system: MALME-3M melanoma
OVCAR-4 ovarian = test system: OVCAR-4 ovarian
HCC-2998 colon = test system: HCC-2998 colon
DU-145 prostate = test system: DU-145 prostate
LOX IMVI melanoma = test system: LOX IMVI melanoma
SNB-75 CNS = test system: SNB-75 CNS
ACHN renal = test system: ACHN renal
SK-MEL-28 melanoma = test system: SK-MEL-28 melanoma
HL-60(TB) leukemia = test system: HL-60(TB) leukemia

CC1(C)CCC2(C(=O)O)CC[C@]3(C)C(=CCC4C5(C)CC[C@H](OC6OC(C(=O)O)C(O)C(OC7OC(CO)C(O)C(O)C7O)C6OC6OC(CO)C(O)C(O)C6O)C(C)(C)C5CCC43C)C2C1 (stereo not given in full)
> 100 µM: TGI (MDA-MB-435) | TGI (EKVX NSCLC) | TGI (UACC-257 melanoma) | TGI (HOP-62 NSCLC) | TGI (NCI-H522 lung) | TGI (CCRF-CEM leukemia) | TGI (IGROV1 ovarian) | TGI (SN12C renal) | TGI (T-47D breast) | TGI (RPMI-8226 leukemia) | TGI (MOLT-4 leukemia) | TGI (786-0 renal) | TGI (NCI/ADR-RES ovarian) | TGI (SW-620 colon) | TGI (SF-268 CNS) | TGI (HCT-15 colon) | TGI (UO-31 renal) | TGI (SR leukemia) | TGI (NCI-H460 lung) | TGI (RXF 393 renal) | TGI (M14 melanoma) | TGI (SK-MEL-5 melanoma) | TGI (SK-MEL-2 melanoma) | TGI (HT29 colon) | TGI (OVCAR-8 ovarian) | TGI (OVCAR-3 ovarian) | TGI (BT-549 breast) | TGI (SK-OV-3 ovarian) | TGI (NCI-H226 lung) | TGI (SNB-19 CNS) | TGI (TK-10 renal) | TGI (OVCAR-5 ovarian) | TGI (CAKI-1 renal) | TGI (HOP-92 NSCLC) | TGI (HS 578T breast) | TGI (K-562 leukemia) | TGI (SF-295 CNS) | TGI (KM12 colon) | TGI (MCF7 breast) | TGI (HCT-116 colon) | TGI (A498 renal) | TGI (COLO 205 colon) | TGI (A549 NSCLC) | TGI (SF-539 CNS) | TGI (MDA-MB-231 breast)
89.4 µM: TGI (U251 CNS)
38.5 µM: TGI (PC-3 prostate)
inactive: GI50 (MDA-MB-435) > 100 µM | GI50 (EKVX NSCLC) > 100 µM | GI50 (UACC-257 melanoma) > 100 µM | GI50 (HOP-62 NSCLC) > 100 µM | GI50 (NCI-H522 lung) 38.4 µM | GI50 (CCRF-CEM leukemia) > 100 µM | GI50 (IGROV1 ovarian) > 100 µM | GI50 (SN12C renal) 84 µM | GI50 (T-47D breast) > 100 µM | GI50 (RPMI-8226 leukemia) 50.9 µM | GI50 (MOLT-4 leukemia) 86.3 µM | GI50 (786-0 renal) > 100 µM | GI50 (NCI/ADR-RES ovarian) > 100 µM | GI50 (NCI-H23 lung) 20.2 µM | GI50 (SW-620 colon) > 100 µM | GI50 (SF-268 CNS) > 100 µM | GI50 (HCT-15 colon) 94.6 µM | GI50 (UO-31 renal) 63.5 µM | GI50 (SR leukemia) 15.6 µM | GI50 (NCI-H460 lung) > 100 µM | GI50 (RXF 393 renal) > 100 µM | GI50 (PC-3 prostate) 20.6 µM | GI50 (U251 CNS) 32.3 µM | GI50 (M14 melanoma) 79.9 µM | GI50 (SK-MEL-5 melanoma) > 100 µM | GI50 (SK-MEL-2 melanoma) > 100 µM | GI50 (HT29 colon) 40.9 µM | GI50 (OVCAR-8 ovarian) > 100 µM | GI50 (OVCAR-3 ovarian) > 100 µM | GI50 (BT-549 breast) > 100 µM | GI50 (SK-OV-3 ovarian) > 100 µM | GI50 (NCI-H226 lung) > 100 µM | GI50 (SNB-19 CNS) > 100 µM | GI50 (UACC-62 melanoma) 23 µM | GI50 (TK-10 renal) > 100 µM | GI50 (OVCAR-5 ovarian) > 100 µM | GI50 (CAKI-1 renal) > 100 µM | GI50 (HOP-92 NSCLC) > 100 µM | GI50 (HS 578T breast) 97.4 µM | GI50 (K-562 leukemia) 81.1 µM | GI50 (SF-295 CNS) 31.1 µM | GI50 (KM12 colon) > 100 µM | GI50 (MCF7 breast) 53.5 µM | GI50 (HCT-116 colon) > 100 µM | GI50 (A498 renal) > 100 µM | GI50 (COLO 205 colon) > 100 µM | GI50 (A549 NSCLC) > 100 µM | GI50 (SF-539 CNS) > 100 µM | GI50 (MDA-MB-231 breast) 45 µM
50.7 µM: TGI (UACC-62 melanoma)
42.7 µM: TGI (NCI-H23 lung)

O=C1/C(=C/c2ccccc2Br)COc2ccc(O)c(O)c21
2.07 µM: TGI (UO-31 renal)
21.5 µM: TGI (HS 578T breast)
inactive: GI50 (MDA-MB-435) 1.14 µM | GI50 (EKVX NSCLC) 2.09 µM | GI50 (UACC-257 melanoma) 1.53 µM | GI50 (MALME-3M melanoma) 1.28 µM | GI50 (HOP-62 NSCLC) 2.29 µM | GI50 (IGROV1 ovarian) 0.742 µM | GI50 (SN12C renal) 0.937 µM | GI50 (T-47D breast) 2.25 µM | GI50 (OVCAR-4 ovarian) 2.35 µM | GI50 (HCC-2998 colon) 1.83 µM | GI50 (DU-145 prostate) 1.49 µM | GI50 (MOLT-4 leukemia) 0.504 µM | GI50 (786-0 renal) 1.55 µM | GI50 (LOX IMVI melanoma) 1.03 µM | GI50 (NCI/ADR-RES ovarian) 1.88 µM | GI50 (NCI-H23 lung) 1.83 µM | GI50 (SW-620 colon) 1.34 µM | GI50 (SNB-75 CNS) 1.47 µM | GI50 (ACHN renal) 1.32 µM | GI50 (SF-268 CNS) 1.6 µM | GI50 (HCT-15 colon) 0.557 µM | GI50 (UO-31 renal) 0.804 µM | GI50 (NCI-H460 lung) 2.13 µM | GI50 (RXF 393 renal) 1.66 µM | GI50 (PC-3 prostate) 1.04 µM | GI50 (U251 CNS) 1.09 µM | GI50 (M14 melanoma) 1.53 µM | GI50 (SK-MEL-28 melanoma) 1.94 µM | GI50 (SK-MEL-5 melanoma) 1.63 µM | GI50 (SK-MEL-2 melanoma) 1.97 µM | GI50 (HT29 colon) 3.37 µM | GI50 (OVCAR-8 ovarian) 1.31 µM | GI50 (OVCAR-3 ovarian) 0.557 µM | GI50 (BT-549 breast) 2.17 µM | GI50 (SK-OV-3 ovarian) 3.95 µM | GI50 (NCI-H226 lung) 2.75 µM | GI50 (SNB-19 CNS) 1.69 µM | GI50 (UACC-62 melanoma) 1.55 µM | GI50 (TK-10 renal) 2.01 µM | GI50 (OVCAR-5 ovarian) 2.15 µM | GI50 (CAKI-1 renal) 1.31 µM | GI50 (HOP-92 NSCLC) 2.71 µM | GI50 (HS 578T breast) 3.28 µM | GI50 (SF-295 CNS) 2.96 µM | GI50 (KM12 colon) 1.61 µM | GI50 (MCF7 breast) 0.583 µM | GI50 (HCT-116 colon) 1.31 µM | GI50 (A498 renal) 1.97 µM | GI50 (COLO 205 colon) 1.96 µM | GI50 (A549 NSCLC) 2.17 µM | GI50 (MDA-MB-231 breast) 1.42 µM
4.78 µM: TGI (KM12 colon)
4.09 µM: TGI (TK-10 renal)
11.6 µM: TGI (NCI/ADR-RES ovarian)
3.62 µM: TGI (SN12C renal)
3.4 µM: TGI (HCC-2998 colon)
4.06 µM: TGI (M14 melanoma)
> 100 µM: TGI (K-562 leukemia)
5.23 µM: TGI (EKVX NSCLC)
2.78 µM: TGI (HL-60(TB) leukemia) | TGI (HCT-116 colon)
3.92 µM: TGI (SNB-19 CNS)
3.22 µM: TGI (RXF 393 renal)
4.23 µM: TGI (SF-268 CNS)
5.64 µM: TGI (NCI-H460 lung)
8.19 µM: TGI (NCI-H226 lung)
1.55 µM: TGI (CCRF-CEM leukemia)
1.83 µM: TGI (OVCAR-3 ovarian)
0.494 µM: TGI (NCI-H522 lung)
9 µM: TGI (HOP-92 NSCLC)
4.29 µM: TGI (IGROV1 ovarian)
3.27 µM: TGI (MALME-3M melanoma)
6.54 µM: TGI (HOP-62 NSCLC)
11.4 µM: TGI (T-47D breast)
4.82 µM: TGI (SK-MEL-2 melanoma)
5.17 µM: TGI (UACC-257 melanoma)
0.682 µM: TGI (RPMI-8226 leukemia)
6.17 µM: TGI (MDA-MB-231 breast)
3.12 µM: TGI (HCT-15 colon)
4.16 µM: TGI (786-0 renal)
9.89 µM: TGI (PC-3 prostate)
10.4 µM: TGI (HT29 colon)
4.42 µM: TGI (SK-MEL-28 melanoma)
3.23 µM: TGI (DU-145 prostate)
2.32 µM: TGI (LOX IMVI melanoma)
10.2 µM: TGI (OVCAR-4 ovarian) | TGI (A549 NSCLC)
12.2 µM: TGI (OVCAR-8 ovarian)
2.74 µM: TGI (CAKI-1 renal)
8.04 µM: TGI (SF-295 CNS)
6.02 µM: TGI (MCF7 breast)
active: GI50 (NCI-H522 lung) 0.196 µM | GI50 (CCRF-CEM leukemia) 0.311 µM | GI50 (RPMI-8226 leukemia) 0.261 µM | GI50 (HL-60(TB) leukemia) 0.379 µM | GI50 (K-562 leukemia) 0.339 µM
53.4 µM: TGI (MOLT-4 leukemia)
4.39 µM: TGI (OVCAR-5 ovarian)
2.33 µM: TGI (U251 CNS)
3.69 µM: TGI (A498 renal)
3.29 µM: TGI (UACC-62 melanoma)
3.09 µM: TGI (ACHN renal)
3.01 µM: TGI (SK-MEL-5 melanoma)
4.91 µM: TGI (MDA-MB-435)
4.44 µM: TGI (SW-620 colon)
3.95 µM: TGI (COLO 205 colon)
5.95 µM: TGI (BT-549 breast)
15 µM: TGI (SK-OV-3 ovarian)
4.17 µM: TGI (NCI-H23 lung)
6.92 µM: TGI (SNB-75 CNS)
